US20130060022A1, “Compounds useful for treating neurodegenerative disorders” (priority 2011, published 2013)
Read-outs that look alike come from different tables or passages of the source.

Legend:
Format in all cases: cell-based
Details in all cases: Homo sapiens, 5 hours at 37° C., 1% DMSO
Aβ-38 = Aβ-38 level in conditioned media of 2B7 cells (MSD 3-PLEX ELISA)
Method: (§1) Assays were conducted to determine the ability of a Compound of Formula I to modulate […], and Aβ-38.
(§2) Human (6E10) Ab 3-PLEX ELISA kits were purchased from Meso Scale Discovery Labs, 9328 Gaither Road, Gaithersburg, Md. 20877 (Catalog Number K15148E-3). Plates with capture antibodies were blocked for 1-2 hours at room temperature with 150 μL of the manufactures blocking reagent.
(§3) Cultured 2B7 cells in 96 well plate with 250 μL of media per well until confluent;
(§4) Prepared serial dilutions of compounds in DMSO at 100× the final desired concentration;
(§5) Washed wells with 2B7 cells 1× with 250 μL of media;
(§6) Diluted DMSO stocks 1:100 into media:
(§7) Added 250 μL of media containing compounds (1% DMSO) to wells with 2B7 cells for 5 hours at 37° C.
(§8) Diluted conditioned media: 1 part media with 1% DMSO and 1 part blocking buffer;
(§9) 150 μL of the 250 μL of conditioned media were used.
(§10) Seven point standard curve samples were prepared that contained Aβ-42, Aβ-40, and Aβ-38. The highest concentration of Aβ-42 and Aβ-38 was […] and the highest concentration of Aβ-40 was 10,000 pg/mL. Subsequent serial dilutions were 1:3 and the final composition of each sample was 1 part blocking buffer and 1 part cell medium containing 1% DMSO.
(§11) Blocked plates are washed 5× with MSD wash buffer with a plate washer;
(§12) 25 μL of detection antibody and blocker G reagent in MSD blocking solution was added;
(§13) 25 μL of samples (1 part conditioned media containing 1% DMSO and 1 part MSD blocking buffer) were then added;
(§14) Plates were incubated overnight at 4 degrees C. or 2 hours at room temperature.
(§15) Washed wells 5× with MSD wash buffer;
(§16) Added 150 μL 2×MSD read buffer;
(§17) Aβ peptide levels for each peptide were calculated from the standard curve using the MSD software provided with the MSD 2400 Imager. Percent vehicle values for each compound dosage were then calculated and fit to a 4 parameter curve generating IC50 values.

Aβ-42 = Aβ-42 level in conditioned media of 2B7 cells (MSD 3-PLEX ELISA)
Method: as §1, §2, §3, §4, §5, §6, §7, §8, §9, §10, §11, §12, §13, §14, §15, §16, §17

Aβ-40 = Aβ-40 level in conditioned media of 2B7 cells (MSD 3-PLEX ELISA)
Method: as §1, §2, §3, §4, §5, §6, §7, §8, §9, §10, §11, §12, §13, §14, §15, §16, §17

[1] = inflection of dose-response curve, read-out: Aβ 42 DR IC50 Inflection
[2] = inflection of dose-response curve, read-out: Aβ 40 DR IC50 Inflection
[3] = inflection of dose-response curve, read-out: Aβ 38 DR IC50 Inflection

| SMILES | IC50 (Aβ-38; read-out: Aβ 38 IC50) [nM] | IC50 (Aβ-42; [1]) [nM] | IC50 (Aβ-42; read-out: Aβ 42 IC50) [nM] | IC50 (Aβ-40; [2]) [nM] | IC50 (Aβ-40; read-out: Aβ 40 IC50) [nM] | IC50 (Aβ-38; [3]) [nM] |
| --- | --- | --- | --- | --- | --- | --- |
| CC(C)[C@@H](OC(=O)N1CCC1)[C@H]1C[C@@H](C)[C@H]2[C@H](O1)[C@H](O)[C@@]1(C)[C@@H]3CC[C@H]4C(C)(C)[C@@H](OC(=O)N5CC[C@H](C(=O)O)C5)CC[C@@]45C[C@@]35CC[C@]21C [Compound I-1] | 1000 to 5000 | 1000 to 5000 | 1000 to 5000 | > 5000 | > 5000 |  |
| CC(C)[C@@H](OC(=O)N1CCC1)[C@H]1C[C@@H](C)[C@H]2[C@H](O1)[C@H](O)[C@@]1(C)[C@@H]3CC[C@H]4C(C)(C)[C@@H](OC(=O)N[C@H]5CCNC5=O)CC[C@@]45C[C@@]35CC[C@]21C [Compound I-2] | 501 to 1000 |  | 100 to 500 |  | > 5000 |  |
| CC(C)[C@@H](OC(=O)N1CCC1)[C@H]1C[C@@H](C)[C@H]2[C@H](O1)[C@H](O)[C@@]1(C)[C@@H]3CC[C@H]4C(C)(C)[C@@H](OC(=O)N[C@@H]5CCCNC5=O)CC[C@@]45C[C@@]35CC[C@]21C [Compound I-3] | 501 to 1000 | 100 to 500 | 100 to 500 | > 5000 | > 5000 | 1000 to 5000 |
| CC(C)[C@@H](OC(=O)N1CCC1)[C@H]1C[C@@H](C)[C@H]2[C@H](O1)[C@H](O)[C@@]1(C)[C@@H]3CC[C@H]4C(C)(C)[C@@H](OC(=O)N[C@@H](C)C(=O)O)CC[C@@]45C[C@@]35CC[C@]21C [Compound I-4] | 1000 to 5000 |  | 501 to 1000 |  | > 5000 | 501 to 1000 |
| CC(C)[C@@H](OC(=O)N1CCC1)[C@H]1C[C@@H](C)[C@H]2[C@H](O1)[C@H](O)[C@@]1(C)[C@@H]3CC[C@H]4C(C)(C)[C@@H](OC(=O)N[C@@H]5CCNC5=O)CC[C@@]45C[C@@]35CC[C@]21C [Compound I-5] | 100 to 500 |  | 100 to 500 | > 5000 | > 5000 | 100 to 500 |
| CC(C)[C@@H](OC(=O)N1CCC1)[C@H]1C[C@@H](C)[C@H]2[C@H](O1)[C@H](O)[C@@]1(C)[C@@H]3CC[C@H]4C(C)(C)[C@@H](OC(=O)N[C@H]5CCCNC5=O)CC[C@@]45C[C@@]35CC[C@]21C [Compound I-6] | 100 to 500 |  | 100 to 500 | > 5000 | > 5000 | 100 to 500 |
| CC(C)[C@@H](OC(=O)N1CCC1)[C@H]1C[C@@H](C)[C@H]2[C@H](O1)[C@H](O)[C@@]1(C)[C@@H]3CC[C@H]4C(C)(C)[C@@H](OC(=O)NCCC(=O)O)CC[C@@]45C[C@@]35CC[C@]21C [Compound I-8] | 501 to 1000 | 501 to 1000 | 501 to 1000 |  | > 5000 | 501 to 1000 |
| CC(C)[C@@H](OC(=O)N1CCC1)[C@H]1C[C@@H](C)[C@H]2[C@H](O1)[C@H](O)[C@@]1(C)[C@@H]3CC[C@H]4C(C)(C)[C@@H](OC(=O)N5CC(CNS(=O)(=O)C(F)(F)F)C5)CC[C@@]45C[C@@]35CC[C@]21C [Compound I-9] | 1000 to 5000 |  | 1000 to 5000 |  |  |  |
| CC(C)[C@@H](OC(=O)N1CCC1)[C@H]1C[C@@H](C)[C@H]2[C@H](O1)[C@H](O)[C@@]1(C)[C@@H]3CC[C@H]4C(C)(C)[C@@H](OC(=O)N5CC[C@@H](C(=O)O)C5)CC[C@@]45C[C@@]35CC[C@]21C [Compound I-10] | 1000 to 5000 |  | 1000 to 5000 |  | > 5000 |  |
| CC(C)[C@@H](OC(=O)N1CCC1)[C@H]1C[C@@H](C)[C@H]2[C@H](O1)[C@H](O)[C@@]1(C)[C@@H]3CC[C@H]4C(C)(C)[C@@H](OC(=O)N(C)C5CN(C)C5)CC[C@@]45C[C@@]35CC[C@]21C [Compound I-11] | 100 to 500 | < 100 | < 100 | > 5000 | > 5000 | 100 to 500 |
| COCCN1CCN(C(=O)O[C@H]2CC[C@]34C[C@]35CC[C@]3(C)[C@@H]6[C@H](O[C@@H]([C@H](OC(=O)N7CCC7)C(C)C)C[C@H]6C)[C@H](O)[C@@]3(C)[C@@H]5CC[C@H]4C2(C)C)CC1 [Compound I-12] | 1000 to 5000 |  | 501 to 1000 |  | > 5000 |  |
| CC(C)[C@@H](OC(=O)N1CCC1)[C@H]1C[C@@H](C)[C@H]2[C@H](O1)[C@H](O)[C@@]1(C)[C@@H]3CC[C@H]4C(C)(C)[C@@H](OC(=O)N5CCNC(C(F)(F)F)C5)CC[C@@]45C[C@@]35CC[C@]21C (stereo partly drawn) [Compound I-13] | 1000 to 5000 |  | 1000 to 5000 |  |  |  |
| CC(C)[C@@H](OC(=O)N1CCC1)[C@H]1C[C@@H](C)[C@H]2[C@H](O1)[C@H](O)[C@@]1(C)[C@@H]3CC[C@H]4C(C)(C)[C@@H](OC(=O)N5CCN(C6COC6)CC5)CC[C@@]45C[C@@]35CC[C@]21C [Compound I-14] | 501 to 1000 |  | 501 to 1000 |  |  |  |
| CC(C)[C@@H](OC(=O)N1CCC1)[C@H]1C[C@@H](C)[C@H]2[C@H](O1)[C@H](O)[C@@]1(C)[C@@H]3CC[C@H]4C(C)(C)[C@@H](OC(=O)N(C)CC(=O)O)CC[C@@]45C[C@@]35CC[C@]21C [Compound I-15] | 501 to 1000 |  | 100 to 500 |  | > 5000 |  |
